Here are results for 22 compounds from patent US20260365646A1, “AKT1 MODULATORS” (Alterome Therapeutics, Inc., priority 2022, published 2026).

The EC50 is the concentration needed to bring the measured effect to its halfway point.

Some results are limits rather than exact numbers.

The first assay deals with T1, full length AKT E17K (Homo sapiens, UniProt P31749, E17K).
T1 construct: host or cells: HEK-293 (ATCC CRL-1573)
T1 sequence (P31749 whole entry E17K): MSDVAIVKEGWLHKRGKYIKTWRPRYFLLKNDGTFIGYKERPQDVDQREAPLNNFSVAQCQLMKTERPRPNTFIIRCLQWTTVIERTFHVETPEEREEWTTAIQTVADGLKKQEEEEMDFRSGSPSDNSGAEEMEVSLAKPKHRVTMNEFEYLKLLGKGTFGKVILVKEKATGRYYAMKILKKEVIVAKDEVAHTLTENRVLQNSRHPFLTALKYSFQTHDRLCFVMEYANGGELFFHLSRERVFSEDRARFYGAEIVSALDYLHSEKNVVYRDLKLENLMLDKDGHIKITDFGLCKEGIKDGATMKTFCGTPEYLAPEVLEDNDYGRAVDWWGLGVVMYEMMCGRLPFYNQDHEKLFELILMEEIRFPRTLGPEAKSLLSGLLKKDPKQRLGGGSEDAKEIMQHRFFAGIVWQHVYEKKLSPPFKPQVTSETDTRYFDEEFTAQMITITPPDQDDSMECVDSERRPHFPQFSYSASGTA
Kind of assay: NanoBRET Target Engagement (TE) Intracellular Kinase Assay.
Conditions: not given
Type of assay: cell-based. An outline of the steps: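 Live-cell BRET assay: cells expressing NanoLuc-fused full-length AKT E17K incubated 2 h with tracer at target-optimized concentration plus compound. BRET read at 450 nm donor/600 nm acceptor with extracellular NanoLuc inhibitor. EC50 from sigmoidal variable-slope fit of tracer displacement.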
For orientation: In BRET a luciferase serves as donor, and the signal depends on an acceptor being close.
For the compound `COc1c(NC2CCN(C(=O)c3ccc(-n4c(-c5cccnc5N)nc5ccc(-c6ccccc6)nc54)cc3)CC2)c(=O)c1=O` [Example 28, 3-((1-(4-(2-(2-Aminopyridin-3-yl)-5-phenyl-3H-imidazo[4,5-b]pyridin-3-yl)benzoyl)piperidin-4-yl)amino)-4-methoxycyclobut-3-ene-1,2-dione], the EC50 was over 600 nM.

As to `COc1c(N2CCN(Cc3ccc(-n4c(-c5cccnc5N)nc5ccc(-c6ccccc6)nc54)cc3)C[C@H]2C)c(=O)c1=O` [Example 67, (R)-3-(4-(4-(2-(2-aminopyridin-3-yl)-5-phenyl-3H-imidazo[4,5-b]pyridin-3-yl)benzyl)-2-methylpiperazin-1-yl)-4-methoxycyclobut-3-ene-1,2-dione], the EC50 lay within 60 to 600 nM.

Turning to `CCSc1c(N(C2CC2)C2CCN(Cc3ccc(-n4c(-c5cccnc5N)nc5ccc(-c6ccccc6)nc54)cc3)CC2)c(=O)c1=O` [Example 96, 3-((1-(4-(2-(2-aminopyridin-3-yl)-5-phenyl-3H-imidazo[4,5-b]pyridin-3-yl)benzyl)piperidin-4-yl)(cyclopropyl)amino)-4-(ethylthio)cyclobut-3-ene-1,2-dione], the EC50 was in the range of 15 to 60 nM.

As to `CCSc1c(N2CCC3(CC2)CN(Cc2ccc(-n4c(-c5cccnc5N)nc5ccc(-c6ccccc6)nc54)cc2)C3)c(=O)c1=O` [Example 61, 3-(2-(4-(2-(2-Aminopyridin-3-yl)-5-phenyl-3H-imidazo[4,5-b]pyridin-3-yl)benzyl)-2,7-diazaspiro[3.5]nonan-7-yl)-4-(ethylthio)cyclobut-3-ene-1,2-dione], the EC50 fell in the range of 15 to 60 nM.

Compound `COc1c(N2CCN(Cc3ccc(-n4c(-c5cccnc5N)nc5ccc(-c6ccccc6)nc54)cc3)C[C@@H]2C)c(=O)c1=O` [Example 36, (S)-3-(4-(4-(2-(2-Aminopyridin-3-yl)-5-phenyl-3H-imidazo[4,5-b]pyridin-3-yl)benzyl)-2-methylpiperazin-1-yl)-4-methoxycyclobut-3-ene-1,2-dione] returned an EC50 of 15 to 60 nM.

Regarding `Nc1ncccc1-c1nc2ccc(-c3ccccc3)nc2n1-c1ccc(CN2CCC(N3CCCSc4c3c(=O)c4=O)CC2)cc1` [Example 85, 6-(1-(4-(2-(2-aminopyridin-3-yl)-5-phenyl-3H-imidazo[4,5-b]pyridin-3-yl)benzyl)piperidin-4-yl)-2-thia-6-azabicyclo[5.2.0]non-1(7)-ene-8,9-dione], the EC50 lay in the range of 60 to 600 nM.

Compound `COc1c(N2CCN(Cc3ccc(-n4c(-c5cccnc5N)nc5ccc(-c6ccccc6)nc54)cc3)CC23CC3)c(=O)c1=O` [Example 37, 3-(7-(4-(2-(2-Aminopyridin-3-yl)-5-phenyl-3H-imidazo[4,5-b]pyridin-3-yl)benzyl)-4,7-diazaspiro[2.5]octan-4-yl)-4-methoxycyclobut-3-ene-1,2-dione] had an EC50 of 15 to 60 nM.

Compound `COc1c(N2CCC3(CCN(Cc4ccc(-n5c(-c6cccnc6N)nc6ccc(-c7ccccc7)nc65)cc4)C3)CC2)c(=O)c1=O` [Example 57, 3-(2-(4-(2-(2-Aminopyridin-3-yl)-5-phenyl-3H-imidazo[4,5-b]pyridin-3-yl)benzyl)-2,8-diazaspiro[4.5]decan-8-yl)-4-methoxycyclobut-3-ene-1,2-dione] displayed an EC50 of 15 to 60 nM.

Regarding `CCSc1c(N(CC)C2CCN(Cc3ccc(-n4c(-c5cccnc5N)nc5ccc(-c6ccccc6)nc54)cc3)CC2)c(=O)c1=O` [Example 93, 3-((1-(4-(2-(2-aminopyridin-3-yl)-5-phenyl-3H-imidazo[4,5-b]pyridin-3-yl)benzyl)piperidin-4-yl)(ethyl)amino)-4-(ethylthio)cyclobut-3-ene-1,2-dione], the EC50 was in the range of 15 to 60 nM.

Compound `CCOc1c(NC2CCN(Cc3ccc(-n4c(-c5cccnc5N)nc5ccc(-c6ccccc6)nc54)cc3)CC2)c(=O)c1=O` [Example 12, 3-((1-(4-(2-(2-Aminopyridin-3-yl)-5-phenyl-3H-imidazo[4,5-b]pyridin-3-yl)benzyl)piperidin-4-yl)amino)-4-ethoxycyclobut-3-ene-1,2-dione] returned an EC50 of 15 to 60 nM.

The assay is the same for the next values; noted with them: read-out: NanoBRET AKT1E17K EC50; HEK-293 cells transfected with NanoLuc-AKT E17K; competitive displacement of NanoBRET tracer; 2 hr equilibration; 10-point 3-fold dilution.
On to `CCSc1c(N2C[C@H]3CN(Cc4ccc(-n5c(-c6cccnc6N)nc6ccc(-c7ccccc7)nc65)cc4)C[C@H]3C2)c(=O)c1=O` [Example 88, 3-((3aR,6aS)-5-(4-(2-(2-aminopyridin-3-yl)-5-phenyl-3H-imidazo[4,5-b]pyridin-3-yl)benzyl)hexahydropyrrolo[3,4-c]pyrrol-2(1H)-yl)-4-(ethylthio)cyclobut-3-ene-1,2-dione], for which the EC50 was under 15 nM.

Consider `CCSc1c(NC2CCN(Cc3ccc(-n4c(-c5cccnc5N)nc5ccc(-c6ccccc6)nc54)cc3)CC2)c(=O)c1=O` [Example 39, 3-((1-(4-(2-(2-Aminopyridin-3-yl)-5-phenyl-3H-imidazo[4,5-b]pyridin-3-yl)benzyl)piperidin-4-yl)amino)-4-(ethylthio)cyclobut-3-ene-1,2-dione], for which the EC50 is under 15 nM.

As for `COc1c(NC2CCCN(Cc3ccc(-n4c(-c5cccnc5N)nc5ccc(-c6ccccc6)nc54)cc3)CC2)c(=O)c1=O` (stereo not shown) [Example 73, 3-((1-(4-(2-(2-aminopyridin-3-yl)-5-phenyl-3H-imidazo[4,5-b]pyridin-3-yl)benzyl)azepan-4-yl)amino)-4-methoxycyclobut-3-ene-1,2-dione], the EC50 is under 15 nM.

Take `CSc1c(N2CCC3(CC2)CN(Cc2ccc(-n4c(-c5cccnc5N)nc5ccc(-c6ccccc6)nc54)cc2)C3)c(=O)c1=O` [Example 64, 3-(2-(4-(2-(2-aminopyridin-3-yl)-5-phenyl-3H-imidazo[4,5-b]pyridin-3-yl)benzyl)-2,7-diazaspiro[3.5]nonan-7-yl)-4-(methylthio)cyclobut-3-ene-1,2-dione]: the EC50 was under 15 nM.

With `COc1c(N(C)C2CCN(C(C)c3ccc(-n4c(-c5cccnc5N)nc5ccc(-c6ccccc6)nc54)cc3)CC2)c(=O)c1=O` (stereo not shown) [Example 90, 3-((1-(1-(4-(2-(2-aminopyridin-3-yl)-5-phenyl-3H-imidazo[4,5-b]pyridin-3-yl)phenyl)ethyl)piperidin-4-yl)(methyl)amino)-4-methoxycyclobut-3-ene-1,2-dione], the EC50 is under 15 nM.

For the compound `COc1c(NC2CCN(Cc3ccc(-n4c(-c5cccnc5N)nc5ccc(-c6cccc(NC(C)=O)c6)nc54)cc3)CC2)c(=O)c1=O` [Example 8, N-(3-(2-(2-Aminopyridin-3-yl)-3-(4-((4-((2-methoxy-3,4-dioxocyclobut-1-en-1-yl)amino)piperidin-1-yl)methyl)phenyl)-3H-imidazo[4,5-b]pyridin-5-yl)phenyl)acetamide], the EC50 is under 15 nM.

For the compound `CCN(c1c(OC)c(=O)c1=O)C1CCN(Cc2ccc(-n3c(-c4cccnc4N)nc4ccc(-c5ccccc5)nc43)cc2)CC1` [Example 91, 3-((1-(4-(2-(2-aminopyridin-3-yl)-5-phenyl-3H-imidazo[4,5-b]pyridin-3-yl)benzyl)piperidin-4-yl)(ethyl)amino)-4-methoxycyclobut-3-ene-1,2-dione], the concentration giving a half-maximal response (EC50) is under 15 nM.

Regarding `[2H]C([2H])([2H])N(c1c(OC)c(=O)c1=O)C1CCN(Cc2ccc(-n3c(-c4cccnc4N)nc4ccc(-c5ccccc5)nc43)cc2)CC1` [Example 100, 3-((1-(4-(2-(2-aminopyridin-3-yl)-5-phenyl-3H-imidazo[4,5-b]pyridin-3-yl)benzyl)piperidin-4-yl)(methyl-d3)amino)-4-methoxycyclobut-3-ene-1,2-dione], the EC50 was under 15 nM.

For the compound `COc1c(N2C[C@H]3C[C@@H]2CN3Cc2ccc(-n3c(-c4cccnc4N)nc4ccc(-c5ccccc5)nc43)cc2)c(=O)c1=O` [Example 76, 3-((1R,4R)-5-(4-(2-(2-aminopyridin-3-yl)-5-phenyl-3H-imidazo[4,5-b]pyridin-3-yl)benzyl)-2,5-diazabicyclo[2.2.1]heptan-2-yl)-4-methoxycyclobut-3-ene-1,2-dione], the EC50 was under 15 nM.

As to `COc1c(N[C@@H]2CCCN(Cc3ccc(-n4c(-c5cccnc5N)nc5ccc(-c6ccccc6)nc54)cc3)C2)c(=O)c1=O` [Example 34, (R)-3-((1-(4-(2-(2-aminopyridin-3-yl)-5-phenyl-3H-imidazo[4,5-b]pyridin-3-yl)benzyl)piperidin-3-yl)amino)-4-methoxycyclobut-3-ene-1,2-dione], the EC50 is under 15 nM.

For `COc1c(NC2CCC3(CC2)CN(Cc2ccc(-n4c(-c5cccnc5N)nc5ccc(-c6ccccc6)nc54)cc2)C3)c(=O)c1=O` [Example 98, 3-((2-(4-(2-(2-aminopyridin-3-yl)-5-phenyl-3H-imidazo[4,5-b]pyridin-3-yl)benzyl)-2-azaspiro[3.5]nonan-7-yl)amino)-4-methoxycyclobut-3-ene-1,2-dione], the EC50 is under 15 nM.

As to `CCSc1c(N(C)N2CCN(Cc3ccc(-n4c(-c5cccnc5N)nc5ccc(-c6ccccc6)nc54)cc3)CC2)c(=O)c1=O` [Example 97, 3-((4-(4-(2-(2-aminopyridin-3-yl)-5-phenyl-3H-imidazo[4,5-b]pyridin-3-yl)benzyl)piperazin-1-yl)(methyl)amino)-4-(ethylthio)cyclobut-3-ene-1,2-dione], the EC50 was under 15 nM.
